# Assay results taken from ChEMBL document CHEMBL1201862, “PubChem BioAssay data set” (2004).
# The source made the active and inactive calls. Rule as the data show it, for most assays here: actives have a measured EC50 and inactives only a lower limit.
# Columns and labels:
# [1] = test system: Streptococcus sp. 'group A'; assay: Streptococcus pyogenes SK(-)GAS viability under kanamycin – luminescence, BacTiterGlo, confirmation, counter-screen for streptokinase expression inhibitor project, dose response (AID 1900); format: functional, organism-based
# [2] = target: T1, Heat shock factor protein 1 (Mus musculus, UniProt P38532); assay: decrease of HSF1-responsive luciferase luminescence – cell-based, NIH3T3, dose retest, confirmation (AID 2382); format: functional;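 also: NIH3T3 fibroblasts with HSF1-driven luciferase reporter stressed by proteasome inhibitor MG132; luminescence from HSF1-driven luciferase expression after 8 hours of MG132 stress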
# T1 sequence (P38532 whole entry): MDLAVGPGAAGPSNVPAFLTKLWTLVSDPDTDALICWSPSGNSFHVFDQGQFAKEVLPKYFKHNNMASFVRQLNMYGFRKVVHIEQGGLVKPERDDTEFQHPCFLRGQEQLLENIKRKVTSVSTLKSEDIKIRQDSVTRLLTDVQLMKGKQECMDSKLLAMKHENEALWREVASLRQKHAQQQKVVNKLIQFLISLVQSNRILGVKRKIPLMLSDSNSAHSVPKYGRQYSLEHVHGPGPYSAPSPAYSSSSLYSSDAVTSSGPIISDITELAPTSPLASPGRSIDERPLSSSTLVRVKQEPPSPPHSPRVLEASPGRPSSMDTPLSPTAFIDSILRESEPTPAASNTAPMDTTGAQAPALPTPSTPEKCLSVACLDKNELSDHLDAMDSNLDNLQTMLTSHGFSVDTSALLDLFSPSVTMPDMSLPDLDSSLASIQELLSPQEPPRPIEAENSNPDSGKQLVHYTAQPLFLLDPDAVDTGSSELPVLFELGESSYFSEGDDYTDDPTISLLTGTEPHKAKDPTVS
# Caspase-3 = target: T2, Caspase-3 (Homo sapiens, UniProt P42574); format: functional;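 also: Dose-response selectivity test against caspase-3 for candidate inhibitors of sentrin-specific proteases (SENPs)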
# T2 sequence (P42574 whole entry): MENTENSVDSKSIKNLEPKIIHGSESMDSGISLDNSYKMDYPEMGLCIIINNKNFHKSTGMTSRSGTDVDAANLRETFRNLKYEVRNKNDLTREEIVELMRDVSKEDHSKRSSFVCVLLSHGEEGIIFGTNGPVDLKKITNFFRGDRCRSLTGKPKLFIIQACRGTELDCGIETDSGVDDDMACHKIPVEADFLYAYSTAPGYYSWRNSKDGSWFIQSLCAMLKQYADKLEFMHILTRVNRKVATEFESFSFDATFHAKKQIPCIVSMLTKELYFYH
# [3] = target: T3, Sentrin-specific protease 8 (Homo sapiens, UniProt Q96LD8); format: functional;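 also: luminescence read-out of SENP8 inhibition, dose-response confirmation following an ultra-high-throughput screen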
# T3 sequence (Q96LD8 whole entry): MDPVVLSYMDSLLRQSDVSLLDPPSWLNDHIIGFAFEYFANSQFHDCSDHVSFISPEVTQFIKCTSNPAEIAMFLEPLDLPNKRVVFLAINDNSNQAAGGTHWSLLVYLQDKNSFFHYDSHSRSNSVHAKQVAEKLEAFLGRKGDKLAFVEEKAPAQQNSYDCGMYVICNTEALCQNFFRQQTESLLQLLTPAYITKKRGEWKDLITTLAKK
# BJ = assay: BJ-TERT fibroblast viability loss – cell-based, RAS-independent, luminescence, dose response (AID 1933); format: functional; details: Homo sapiens
# cells = format: functional, cell-based
# [4] = target: T4, Serine/threonine-protein phosphatase (Candida dubliniensis (strain CD36 / CBS 7987 / NCPF 3949 / NRRLY-17841) (Yeast), UniProt B9W6M3); assay: blockers of CaCl2-induced CDRE-lacZ signaling – S. cerevisiae, luminescence, secondary, dose response (AID 2388); format: functional, cell-based;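 also: yeast reporter cells carrying a calcineurin-responsive lacZ construct stimulated with calcium chloride; luminescent beta-galactosidase reporter signal in whole cells rather than isolated phosphatase activity; potency for inhibition where a drop in reporter signal means calcineurin blockade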
# T4 sequence (B9W6M3 whole entry): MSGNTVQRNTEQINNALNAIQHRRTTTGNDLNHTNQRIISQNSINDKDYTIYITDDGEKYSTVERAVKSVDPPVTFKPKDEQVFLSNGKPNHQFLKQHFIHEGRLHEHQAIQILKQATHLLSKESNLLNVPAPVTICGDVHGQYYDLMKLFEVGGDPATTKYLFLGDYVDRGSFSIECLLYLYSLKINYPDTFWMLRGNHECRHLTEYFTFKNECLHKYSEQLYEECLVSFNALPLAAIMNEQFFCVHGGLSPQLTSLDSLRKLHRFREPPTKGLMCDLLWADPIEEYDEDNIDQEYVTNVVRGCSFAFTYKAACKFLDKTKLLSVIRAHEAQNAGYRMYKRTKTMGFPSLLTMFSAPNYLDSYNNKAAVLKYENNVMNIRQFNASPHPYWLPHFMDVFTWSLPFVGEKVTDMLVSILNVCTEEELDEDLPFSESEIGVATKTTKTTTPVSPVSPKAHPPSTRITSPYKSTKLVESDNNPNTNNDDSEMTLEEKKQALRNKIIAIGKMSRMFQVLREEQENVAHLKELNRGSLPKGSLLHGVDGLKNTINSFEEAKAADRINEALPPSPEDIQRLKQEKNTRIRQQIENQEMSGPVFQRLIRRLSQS
# [5] = NIH3T3 cell viability loss – ATP luminescence, mouse fibroblasts, counter-screen, dose response (AID 2010); format: functional, cell-based;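 also: cells exposed to compound for about 90 hours before reading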
# [6] = HEK-293T viability loss after treatment – luminescence, T-cell screen hits, cytotoxicity control for TCR NF-kB inhibitor project, dose response (AID 489026); format: functional, cell-based;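 also: cells exposed to compound about 14 hours before the viability readout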
SMILES,EC50 [1],EC50 [2],IC50 (Caspase-3),IC50 [3],EC50 (BJ),EC50 (cells),EC50 [4],EC50 [5],IC50 [6]
CCOc1cccc(/C=N/NC(=S)Nc2ccccc2[N+](=O)[O-])c1O,0.267 µM (active),3.56 µM (active),4.25 µM (active),12.8 µM (active),,,,,
CCCCC(=O)NC(c1ccc(N(CC)CC)cc1)c1ccc2cccnc2c1O (centres undefined),,,,,0.717 µM (active),3.08 µM (active),> 180 µM (inactive),0.884 µM (active),> 80 µM (inactive)
